This note sets out measurements from patent US20250275559A1, “SATURATED FATTY ACIDS AND THEIR USE TO MODIFY TASTE” (Firmenich Incorporated, priority 2022, published 2025).

Type in all cases: cell-based
One experiment deals with T1, T2R54 (TAS2R39) (Homo sapiens, UniProt P59534).
T1 construct: expressed in transfected cells; host or cells: cells expressing a promiscuous G protein (e.g., G16g44)
T1 sequence (P59534 1-338): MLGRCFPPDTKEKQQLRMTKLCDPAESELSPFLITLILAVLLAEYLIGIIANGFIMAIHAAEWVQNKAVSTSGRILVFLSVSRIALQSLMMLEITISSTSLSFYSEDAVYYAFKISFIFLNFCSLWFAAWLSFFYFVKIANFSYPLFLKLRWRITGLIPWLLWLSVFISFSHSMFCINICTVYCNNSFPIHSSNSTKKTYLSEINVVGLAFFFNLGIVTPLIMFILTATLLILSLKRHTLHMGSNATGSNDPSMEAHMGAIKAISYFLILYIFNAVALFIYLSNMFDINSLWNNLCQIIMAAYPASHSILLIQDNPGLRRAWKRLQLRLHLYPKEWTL
In words: FLIPR calcium assay, block of bitter agonist response in cells transfected with T2R54. The note with it: saturated fatty acid concentration of 200 μM. As to the method:
(§1) Cells expressing a promiscuous […] (e.g., G16g44) were transfected with vectors encoding 5 functional bitter receptor cDNAs, with one receptor per transfection. The cells were transfected directly in 384-well format high-density plates and incubated for 28 hours. Later, cells were loaded with the Ca-specific dye Fluo4-AM. After an incubation of 60 minutes, excess dye is washed off, and cells are stimulated with various saturated fatty acids while simultaneously recording changes in intracellular fluorescence using a FLIPR instrument.
(§2) The above protocol was carried out using 13 different saturated fatty acids. […] Table 2 indicates the thirteen (13) compounds tested by their compound number from Table 1 above. The 6 bitter taste receptors are the human bitter taste receptors, that we named T2R01 (TAS2R01), T2R08 (TAS2R08), T2R10 (TAS2R10), T2R14 (TAS2R14), T2R54 (TAS2R39), and T2R75 (TAS2R46). The corresponding IUPHAR nomenclature for each receptor is given in parenthesis. In Table 2, these receptors are identified by the last two digits. For example, T2R01 is indicated as 01. Table 2 reports the percentage block of cellular response over baseline at a saturated fatty acid concentration of 200 μM.

The target of another experiment is T2, T2R08 (TAS2R08) (Homo sapiens, UniProt Q9NYW2).
T2 construct: expressed in transfected cells; host or cells: cells expressing a promiscuous G protein (e.g., G16g44)
T2 sequence (Q9NYW2 1-309): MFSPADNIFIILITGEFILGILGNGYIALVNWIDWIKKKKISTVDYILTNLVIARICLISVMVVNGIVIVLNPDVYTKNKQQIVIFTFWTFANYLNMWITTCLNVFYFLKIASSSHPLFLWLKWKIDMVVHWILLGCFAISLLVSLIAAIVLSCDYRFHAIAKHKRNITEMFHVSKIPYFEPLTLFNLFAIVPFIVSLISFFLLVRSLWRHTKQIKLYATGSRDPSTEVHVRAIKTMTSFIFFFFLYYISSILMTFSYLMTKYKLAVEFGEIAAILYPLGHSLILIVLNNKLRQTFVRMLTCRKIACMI
Put plainly: FLIPR calcium assay, block of bitter agonist response in cells transfected with T2R08. The note with it: saturated fatty acid concentration of 200 μM, read-out: percentage block of cellular response over baseline, 08. As to the method:
as §1, with “instrument. Bitter agonist and responding receptors were identified.” for “instrument.”
as §2, with “acids. A particular T2R receptor was identified as being antagonized by a particular saturated fatty acid if it triggered a >25% block of agonist's cellular response at 200 µM concentration of saturated fatty acid.” for “acids.”

In a further experiment the target is T3, T2R01 (TAS2R01) (Homo sapiens, UniProt Q9NYW7).
T3 construct: expressed in transfected cells; host or cells: cells expressing a promiscuous G protein (e.g., G16g44)
T3 sequence (Q9NYW7 1-299): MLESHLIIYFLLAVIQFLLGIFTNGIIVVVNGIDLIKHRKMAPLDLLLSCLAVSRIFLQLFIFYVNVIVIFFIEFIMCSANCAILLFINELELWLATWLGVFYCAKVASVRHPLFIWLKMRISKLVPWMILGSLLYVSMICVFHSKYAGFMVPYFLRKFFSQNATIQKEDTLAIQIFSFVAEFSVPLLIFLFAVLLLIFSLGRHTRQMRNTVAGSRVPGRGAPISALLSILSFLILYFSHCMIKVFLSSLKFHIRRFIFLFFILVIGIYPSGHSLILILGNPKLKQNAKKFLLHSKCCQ
In words: FLIPR calcium assay, block of bitter agonist response in cells transfected with T2R01. The note with it: saturated fatty acid concentration of 200 μM, read-out: percentage block of cellular response over baseline, 01. As to the method:
as §1, §2

A further experiment has as its target T4, T2R75 (TAS2R46) (Homo sapiens, UniProt P59540).
T4 construct: expressed in transfected cells; host or cells: cells expressing a promiscuous G protein (e.g., G16g44)
T4 sequence (P59540 1-309): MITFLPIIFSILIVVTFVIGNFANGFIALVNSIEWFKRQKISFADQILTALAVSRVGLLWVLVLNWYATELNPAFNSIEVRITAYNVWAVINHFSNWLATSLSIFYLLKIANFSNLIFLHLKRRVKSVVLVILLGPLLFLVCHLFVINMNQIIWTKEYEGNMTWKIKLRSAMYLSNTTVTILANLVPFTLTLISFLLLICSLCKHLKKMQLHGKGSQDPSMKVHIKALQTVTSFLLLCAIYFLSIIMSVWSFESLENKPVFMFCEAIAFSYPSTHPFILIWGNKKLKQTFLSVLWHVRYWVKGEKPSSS
Put plainly: FLIPR calcium assay, block of bitter agonist response in cells transfected with T2R75. The note with it: saturated fatty acid concentration of 200 μM. How it is done: as §1, §2

Another experiment addresses T5, T2R14 (TAS2R14) (Homo sapiens, UniProt Q9NYV8).
T5 construct: expressed in transfected cells; host or cells: cells expressing a promiscuous G protein (e.g., G16g44)
T5 sequence (Q9NYV8 1-317): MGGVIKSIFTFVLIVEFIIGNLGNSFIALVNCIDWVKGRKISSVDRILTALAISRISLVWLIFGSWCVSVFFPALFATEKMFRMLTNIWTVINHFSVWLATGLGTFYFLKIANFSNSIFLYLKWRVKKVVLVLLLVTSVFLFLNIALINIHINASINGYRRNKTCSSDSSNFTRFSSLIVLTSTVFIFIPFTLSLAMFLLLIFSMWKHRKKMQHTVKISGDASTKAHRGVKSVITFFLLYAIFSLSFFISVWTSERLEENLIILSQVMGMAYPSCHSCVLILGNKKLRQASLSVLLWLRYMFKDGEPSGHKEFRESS
Put plainly: FLIPR calcium assay, block of bitter agonist response in cells transfected with T2R14. The note with it: saturated fatty acid concentration of 200 μM. As to the method: as §1, §2

The target of another experiment is T6, T2R10 (TAS2R10) (Homo sapiens, UniProt Q9NYW0).
T6 construct: expressed in transfected cells; host or cells: cells expressing a promiscuous G protein (e.g., G16g44)
T6 sequence (Q9NYW0 1-307): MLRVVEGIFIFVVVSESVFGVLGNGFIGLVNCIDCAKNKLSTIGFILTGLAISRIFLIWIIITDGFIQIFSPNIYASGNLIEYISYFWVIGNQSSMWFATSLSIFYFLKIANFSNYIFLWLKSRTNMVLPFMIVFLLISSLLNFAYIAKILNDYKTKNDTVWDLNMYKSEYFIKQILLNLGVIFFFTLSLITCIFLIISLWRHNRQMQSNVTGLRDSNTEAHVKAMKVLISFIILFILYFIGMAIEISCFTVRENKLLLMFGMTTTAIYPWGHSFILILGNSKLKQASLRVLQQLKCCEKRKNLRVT
Put plainly: FLIPR calcium assay, block of bitter agonist response in cells transfected with T2R10. The note with it: saturated fatty acid concentration of 200 μM, read-out: percentage block of cellular response over baseline, 10. As to the method: as §1, §2

Molecules are shown by their SMILES.

In the case of `CCCCCCC(=O)O` [Compound 101, Heptanoic acid (Enanthic acid)], the “percentage block of cellular response over baseline, 54” value (shortened to “percentage block … 54”) on T2R54 (TAS2R39) was found to be 65%. In addition, the inhibition at 200 µM at T2R08 (TAS2R08) is 25%.
For the molecule `CCCCCCCC(=O)O` [Compound 102, Octanoic acid (Caprylic acid)], the inhibition at 200 µM at T2R01 (TAS2R01) is over 30%; on T2R10 (TAS2R10), 40%. On T2R54 (TAS2R39), the “percentage block … 54” value is reported as 90%. Moreover, at T2R75 (TAS2R46), the “percentage block of cellular response over baseline, 75” value (shortened to “percentage block … 75”) was found to be 30%. Also, the “percentage block of cellular response over baseline, 14” value (shortened to “percentage block … 14”) on T2R14 (TAS2R14) is on record as over 25%.
Regarding `CCCCCCCCC(=O)O` [Compound 103, Nonanoic acid (Pelargonic acid)], the inhibition at 200 µM on T2R01 (TAS2R01) is over 50%; on T2R08 (TAS2R08), over 50%; at T2R10 (TAS2R10), over 70%. In addition, at T2R14 (TAS2R14), the “percentage block … 14” value is listed as over 35%.
Regarding `CCCCCCCCCC(=O)O` [Compound 104, Decanoic acid (Capric acid)], the inhibition at 200 µM on T2R01 (TAS2R01) is over 75%; at T2R08 (TAS2R08) it was over 65%; at T2R10 (TAS2R10), over 95%. Further, the “percentage block … 54” value at T2R54 (TAS2R39) is reported as over 75%. The “percentage block … 75” value on T2R75 (TAS2R46) is over 50%. The “percentage block … 14” value on T2R14 (TAS2R14) was over 55%.
Turning to `CCCCCCCCCCC(=O)O` [Compound 105, Undecanoic acid], the inhibition at 200 µM was over 75% at T2R01 (TAS2R01) and over 95% on T2R10 (TAS2R10). Moreover, the “percentage block … 14” value at T2R14 (TAS2R14) is recorded as over 85%.
For the molecule `CCCCCCCCCCCC(=O)O` [Compound 106, Dodecanoic acid (Lauric acid)], the inhibition at 200 µM was over 35% at T2R01 (TAS2R01), 40% on T2R08 (TAS2R08) and over 85% at T2R10 (TAS2R10). In addition, at T2R14 (TAS2R14), the “percentage block … 14” value turned out to be 65%.
As for `CCCCCCCCCCCCC(=O)O` [Compound 107, Tridecanoic acid], the “percentage block … 14” value on T2R14 (TAS2R14) is given as over 25%.
Regarding `CCCCC(C)C(=O)O` (stereo not drawn) [Compound 114, 2-Methylhexanoic acid], at T2R54 (TAS2R39), the “percentage block … 54” value is recorded as 50%.
Turning to `CCCCC(CC)C(=O)O` (stereo not drawn) [Compound 115, 2-Ethylhexanoic acid], on T2R54 (TAS2R39), the “percentage block … 54” value came out at 50%.
Consider `CCCCCC(C)C(=O)O` (stereo not drawn) [Compound 117, 2-Methylheptanoic acid], for which the “percentage block … 54” value at T2R54 (TAS2R39) is listed as 80%. In addition, the inhibition at 200 µM at T2R08 (TAS2R08) and at T2R10 (TAS2R10) was 30% each time.
Consider `CCCCC(C)CCC(=O)O` (stereo not drawn) [Compound 119, 4-Methyloctanoic acid], for which the inhibition at 200 µM on T2R01 (TAS2R01) was 40%; at T2R08 (TAS2R08), 45%; on T2R10 (TAS2R10), over 60%.
Regarding `CCCCC(CC)CCC(=O)O` (stereo not drawn) [Compound 120, 4-Ethyloctanoic acid], the values for the inhibition at 200 µM at T2R01 (TAS2R01), at T2R08 (TAS2R08) and on T2R10 (TAS2R10) were over 30%, over 25% and over 50%, respectively. Also, on T2R54 (TAS2R39), the “percentage block … 54” value amounted to 95%. The “percentage block … 75” value on T2R75 (TAS2R46) was determined as 25%.
With `CCCCCC(C)CCC(=O)O` (stereo not drawn) [Compound 121, 4-Methylnonanoic acid], the figures for the inhibition at 200 µM on T2R01 (TAS2R01), on T2R08 (TAS2R08) and on T2R10 (TAS2R10) were over 50%, over 55% and over 85%, respectively. In addition, the “percentage block … 14” value at T2R14 (TAS2R14) is over 40%.
